Experimental findings from BindingDB's records for doi:10.1021/jm9800447 (The George Washington University Medical Center, 1998) are described below.

Usually Ki stands for a measure of affinity in units of concentration, obtained from inhibition or displacement. High values mean lower affinity, low ones higher affinity.

In this experiment the target is Sigma non-opioid intracellular receptor 1 (Cavia porcellus) (UniProt Q60492). In words: Inhibition of [3H](+)-pentazocine binding to sigma-1 receptor in guinea pig brain membranes.
Sigma non-opioid intracellular receptor 1 (Cavia porcellus), sequence (Q60492 whole entry, looked up): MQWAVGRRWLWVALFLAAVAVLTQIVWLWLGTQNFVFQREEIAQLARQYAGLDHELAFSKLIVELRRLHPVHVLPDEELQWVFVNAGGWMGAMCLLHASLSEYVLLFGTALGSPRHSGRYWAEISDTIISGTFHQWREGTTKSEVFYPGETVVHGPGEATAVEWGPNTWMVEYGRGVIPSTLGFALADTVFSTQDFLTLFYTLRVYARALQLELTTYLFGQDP
Take `COc1ccc(S(=O)(=O)NCCN2CCCCC2)cc1I` [3-Iodo-4-methoxy-N-(2-piperidin-1-yl-ethyl)-benzenesulfonamide]: the affinity corresponds to a Ki of 41.8 nM. The value for `CCN(CC)CCNS(=O)(=O)c1ccc(Br)cc1` [4-Bromo-N-(2-diethylamino-ethyl)-benzenesulfonamide] was 10.1 nM; that for `O=S(=O)(NCCN1CCCCC1)c1ccc(Br)cc1` [4-Bromo-N-(2-piperidin-1-yl-ethyl)-benzenesulfonamide] was 1.54 nM; that for `O=S(=O)(NCCN1CCCC1)c1ccc(Br)cc1` [4-Bromo-N-(2-pyrrolidin-1-yl-ethyl)-benzenesulfonamide] was 6.65 nM. As for `O=S(=O)(NCCN1CCCCC1)c1ccc(I)cc1` [4-Iodo-N-(2-piperidin-1-yl-ethyl)-benzenesulfonamide], the figure is 0.46 nM; as for `O=S(=O)(NCCN1CCCC1)c1ccc(I)cc1` [4-Iodo-N-(2-pyrrolidin-1-yl-ethyl)-benzenesulfonamide], 4.3 nM. The value for `COc1ccc(S(=O)(=O)N(C)CCN2CCCCCC2)cc1I` [N-(2-Azepan-1-yl-ethyl)-3-iodo-4-methoxy-N-methyl-benzenesulfonamide] was 3.11 nM. With `CN(CCN1CCCCCC1)S(=O)(=O)c1ccc(Br)cc1` [N-(2-Azepan-1-yl-ethyl)-4-bromo-N-methyl-benzenesulfonamide], the Ki is 0.18 nM. The value for `O=S(=O)(NCCN1CCCCCC1)c1ccc(Br)cc1` [N-(2-Azepan-1-yl-ethyl)-4-bromo-benzenesulfonamide] was 0.63 nM; that for `CN(CCN1CCCCCC1)S(=O)(=O)c1ccc(I)cc1` [N-(2-Azepan-1-yl-ethyl)-4-iodo-N-methyl-benzenesulfonamide] was 0.14 nM; that for `O=S(=O)(NCCN1CCCCCC1)c1ccc(I)cc1` [N-(2-Azepan-1-yl-ethyl)-4-iodo-benzenesulfonamide] was 1.32 nM. The value for `CCN(CC)CCNS(=O)(=O)c1ccc(I)cc1` [N-(2-Diethylamino-ethyl)-4-iodo-benzenesulfonamide] was 4.97 nM.
